Measured values published in patent US20080221205A1, “FURAN DERIVATIVES FOR PREVENTING AND CURING OSTEOPOROSIS AND PHARMACEUTICAL COMPOSITIONS CONTAINING THE SAME” (priority 2002, published 2008).
Entries after “also recorded” stand apart in the source; their conditions may differ.

Tests used:
[1] = test system: ovariectomized white mice; experiment: Bone mineral densitometer test, preventive effect on osteoporosis; format: in vivo; details: for Change in BMD, %: test group, oral 10 mg per mouse after ovariectomy
Protocol: After ovariectomy, female white mice weighing about 250 g were orally administered with 10 mg of the Compound 1 per mice for four weeks. Bone mineral density (BMD) was measured before the ovariectomy and every week during the administration of the Compound 1, using a bone mineral densitometer, XCT 540 Research SA made in Germany.
After anesthetizing the mice being bred in cages by intraperitoneal injection of a mixture of Ketamine HCl (ketara 10 mg/kg) and 2% xylazine HCl (Roupun 0.15 ml/kg), BMD measurement was made at a voxel size of 0.1×0.1 mm^2 and threshold values of 280 mg/cm^2 for cancellous bone and 500 mg/cm^2 for compact bone. The analysis sites at the proximal tibias were determined by Scout scans (10 mm/sec), and BMD was measured at three slices at the determined sites by CT scans (7 mm/sec). BMD measurement was performed twice or more at the same site every week during four weeks.

[2] = test system: Runx2; experiment: Runx2 expression, p6xOSE2-Luc luciferase assay in C2C12 cells; format: cell-based, mouse; details: concentration not given
Protocol: (§1) In the following tests, three kinds of cell lines were used. The human osteosarcoma cell lines, MG-63 (ATCC No. CRL-1427) and HOS (ATCC No. CRL-1543), and mouse muscle C2C12 muscle cells (ATCC No. CRL-1772) were purchased from ATCC (American Type Culture Collection, Rockville, USA), and cultured in Dulbecco's modified Eagle's medium (DMEM) supplemented with 10% fetal bovine serum (FBS).
Primarily, transient transfection was carried out using a p6xOSE2-Luc vector, which was prepared by inserting into a pGL3 promoter vector six tandem copies of the OSE2 motif, the binding site of the transcriptional factor Runx2 that is a critical regulator for osteoblast differentiation. Runx2 expression levels were determined by luciferase assay. The test procedure will be described in more detail, as follows.
C2C12 cells were plated onto 6-well plates at a density of 1 (10^5 cells per well, and cultured for 24 hrs in a 5% CO2 incubator.
Then, the cells transiently transfected with the p6xOSE2-Luc vector using a transfection reagent, LipofectAmine, as follows. The plasmid DNA was reacted with the transfection reagent for 15 min to form p6xOSE2-Luc DNA:lipofectamine complexes. During this reaction, culture medium was removed from each well of the plates, the cells were washed with FBS-free DMEM, and 800 μl of FBS-free DMEM was added to each well. […]

[3] = test system: MG-63 osteoblasts; experiment: Proliferation of MG-63 osteoblasts (3H-thymidine incorporation); format: cell-based, human; details: concentration not given
Description: as §1
In order to indirectly evaluate cytotoxicity of the Compound 1 and investigate effect of the Compound 1 naturally extracted on obsteoblast proliferation, proliferation of MG-63 osteoblasts was investigated by measuring the amount of ^3H-thymidine incorporated into cellular DNA upon DNA replication. The cells were aliquotted onto 24-well plates at a density of 2×10^4 cells per well. The next day, after exchanging culture medium to medium containing 1% FBS, the cells were treated with the compound 1 serially diluted at various concentrations and further cultured for 48 hrs. Four hours before finishing the culture of 48 hrs, ^3H-thymidine was added to the medium in an amount of 3 μCi per well. The cells were washed with phosphate buffer, and treated with 5% trichloroacetic acid (TCA) pre-cooled on ice. Each of the separated TCA-insoluble fractions was dissolved in 0.1 M NaOH. With a portion of each fraction, ^3H-thymidine uptake by the cells was measured using a liquid scintillation counter.

[4] = test system: osteoclasts; experiment: Resorption activity of osteoclasts on calcium phosphate-coated plates (resorption pit area); format: cell-based, mice; details: concentration not given
Protocol: In order to investigate the effects of the Compound 1 on differentiation and activity of osteoclasts, when differentiation of osteoclast progenitors was induced, the activity of Tartrate-resistant acid phosphatase (TRAP) as an osteoclastic marker enzyme was investigated, and, when differentiated osteoclasts were cultured on calcium phosphate-coated plates (OAAS, OCT Inc.), resorption activity (formation of resorption pits) were measured.
First, bone marrow cells were isolated, as follow. After sacrificing 7-9 week female mice by cervical dislocation, femur and tibia were excised aseptically while removing attached soft tissues. After cutting both ends of long bones, 1 ml of an enzyme solution, containing 0.1% collagenase (Gibco), 0.05% trypsin and 0.5 mM EDTA (Gibco), was injected to the bone marrow cavity at one end using a syringe with a 26-guage needle, and bone marrow was then collected. After shaking the recovered bone marrow for 30 min, bone marrow cells were collected, and cultured in α-minimum essential medium (α-MEM) supplemented with 10% FBS for 24 hrs. […]
The differentiated osteoclasts were cultured on calcium phosphate-coated plates (OAASTM, OCT, Korea) in order to evaluate resorption activity of the cells. […] After washing again with distilled water and drying the plates, the area of formed resorption pits was calculated by means of an Image Pro Plus software. […]

[5] = listed as compound prepared in Example 1

## O=Cc1ccc(CO)o1 [Compound 1, 5-hydroxymethylfuran-2-carboxyaldehyde]
[1]; Week 1, control −7.5
  Change in BMD, %: −2.5%
[1]; Week 2, control −11.6
  Change in BMD, %: −3.2%
[1]; Week 3, control −14.9
  Change in BMD, %: −1.8%
[1]; Week 4, control −18.6
  Change in BMD, %: 3.7%
[1]; oral 10 mg/day for four weeks after ovariectomy
  BMD compared to that before ovariectomy (in words): increase in BMD; also recorded: remarkably increased bone mineral density (BMD)
[2]
  Activity of Runx2 (in words): increase the activity of Runx2
[3]
  Proliferation rate of osteoblasts compared to control: over 105%
[3]; [5]
  Proliferation rate of osteoblasts compared to control: ≥ 105%
[4]
  Area of resorption pits compared to control: about 50%
[4]; [5]
  Area of resorption pits compared to control: inhibit bone resorption activity of osteoclasts
